Several values for one entry are separate records, joined by “and”; a condition that tells them apart may be missing. Identical values can stand only once. Toxic doses and inconclusive results are not listed.
Tested on: B6C3F1 mice, intracerebral ependymoblastoma, median survival T/C
Experiment: NCI In Vivo Anticancer Drug Screen. Data for tumor model Ependymoblastoma (intracerebral) in B6C3F1 mice
Conditions: endpoint: median survival time, higher = longer survival
Protocol: The antitumor activity of compounds was measured in mice bearing transplantable tumors. Survival or tumor size were measured and the results are expressed as the measurement made in the treated group (T) divided by the measurement made in the vehicle treated control group (C). The tumor model used in this assay is Ependymoblastoma (intracerebral) in B6C3F1 mice

ClC1=C(Cl)C2(Cl)C3C(Cl)C(Cl)CC3C1(Cl)C2(Cl)Cl (stereo not drawn)
T/C (dose: 6.0 mg/kg/injection, schedule: Q01DX005 (ip), vehicle: saline with Tween-80): 99 % of control and 100 % of control and 105 % of control | T/C (dose: 6.25 mg/kg/injection, schedule: Q01DX005 (ip), vehicle: other): 101 % of control | T/C (dose: 12.0 mg/kg/injection, schedule: Q01DX005 (ip), vehicle: saline with Tween-80): 95 % of control and 96 % of control and 105 % of control | T/C (dose: 12.5 mg/kg/injection, schedule: Q01DX005 (ip), vehicle: other): 108 % of control | T/C (dose: 24.0 mg/kg/injection, schedule: Q01DX005 (ip), vehicle: saline with Tween-80): 96 % of control and 105 % of control and 87 % of control | T/C (dose: 25.0 mg/kg/injection, schedule: Q01DX005 (ip), vehicle: other): 98 % of control | T/C (dose: 45.0 mg/kg/injection, schedule: Q01DX005 (ip), vehicle: saline with Tween-80): 94 % of control and 101 % of control and 110 % of control | T/C (dose: 50.0 mg/kg/injection, schedule: Q01DX005 (ip), vehicle: other): 109 % of control | T/C (dose: 90.0 mg/kg/injection, schedule: Q01DX005 (ip), vehicle: saline with Tween-80): 101 % of control and 86 % of control and 89 % of control

NC(=O)c1cn(C2OC(CO)C(O)C2O)c2ncnc(N)c12 (stereo not drawn)
T/C (dose: 0.38 mg/kg/injection, schedule: Q01DX005 (ip), vehicle: Klucel (hydroxypropylcellulose) (HPC)): 92 % of control | T/C (dose: 0.75 mg/kg/injection, schedule: Q01DX005 (ip), vehicle: Klucel (hydroxypropylcellulose) (HPC)): 90 % of control | T/C (dose: 1.5 mg/kg/injection, schedule: Q01DX005 (ip), vehicle: Klucel (hydroxypropylcellulose) (HPC)): 103 % of control | T/C (dose: 3.0 mg/kg/injection, schedule: Q01DX005 (ip), vehicle: Klucel (hydroxypropylcellulose) (HPC)): 94 % of control

CN(CO)c1nc(N(C)CO)nc(N(C)CO)n1
T/C (dose: 0.78 mg/kg/injection, schedule: Q01DX005 (ip), vehicle: saline with Tween-80): 98 % of control | T/C (dose: 1.56 mg/kg/injection, schedule: Q01DX005 (ip), vehicle: saline with Tween-80): 100 % of control and 105 % of control | T/C (dose: 3.12 mg/kg/injection, schedule: Q01DX005 (ip), vehicle: saline with Tween-80): 94 % of control and 105 % of control and 110 % of control | T/C (dose: 3.12 mg/kg/injection, schedule: Q01DX009 (ip), vehicle: Klucel (hydroxypropylcellulose) (HPC)): 95 % of control and 120 % of control | T/C (dose: 4.0 mg/kg/injection, schedule: Q01DX005 (ip), vehicle: saline with Tween-80): 98 % of control | T/C (dose: 6.25 mg/kg/injection, schedule: Q01DX009 (ip), vehicle: Klucel (hydroxypropylcellulose) (HPC)): 96 % of control and 108 % of control and 111 % of control | T/C (dose: 8.0 mg/kg/injection, schedule: Q01DX005 (ip), vehicle: saline with Tween-80): 89 % of control | T/C (dose: 12.5 mg/kg/injection, schedule: Q01DX009 (ip), vehicle: Klucel (hydroxypropylcellulose) (HPC)): 93 % of control and 111 % of control | T/C (dose: 16.0 mg/kg/injection, schedule: Q01DX005 (ip), vehicle: saline with Tween-80): 97 % of control | T/C (dose: 25.0 mg/kg/injection, schedule: Q01DX009 (ip), vehicle: Klucel (hydroxypropylcellulose) (HPC)): 104 % of control and 114 % of control and 124 % of control | T/C (dose: 32.0 mg/kg/injection, schedule: Q01DX005 (ip), vehicle: saline with Tween-80): 94 % of control | T/C (dose: 50.0 mg/kg/injection, schedule: Q01DX009 (ip), vehicle: Klucel (hydroxypropylcellulose) (HPC)): 120 % of control | T/C (dose: 64.0 mg/kg/injection, schedule: Q01DX005 (ip), vehicle: saline with Tween-80): 95 % of control | T/C (dose: 100.0 mg/kg/injection, schedule: Q01DX005 (ip), vehicle: saline with Tween-80): 119 % of control

CN(Cc1cnc2nc(N)nc(N)c2n1)c1ccc(C(=O)N[C@@H](CCC(=O)O)C(=O)O)cc1
T/C (dose: 4.0 mg/kg/injection, schedule: Q01DX009 (ip), vehicle: saline with Tween-80): 118 % of control | T/C (dose: 4.0 mg/kg/injection, schedule: Q04DX003 (ip), vehicle: saline with Tween-80): 118 % of control | T/C (dose: 8.0 mg/kg/injection, schedule: Q01DX009 (ip), vehicle: saline with Tween-80): 106 % of control | T/C (dose: 8.0 mg/kg/injection, schedule: Q04DX003 (ip), vehicle: saline with Tween-80): 110 % of control | T/C (dose: 16.0 mg/kg/injection, schedule: Q01DX009 (ip), vehicle: saline with Tween-80): 111 % of control | T/C (dose: 16.0 mg/kg/injection, schedule: Q04DX003 (ip), vehicle: saline with Tween-80): 98 % of control | T/C (dose: 32.0 mg/kg/injection, schedule: Q01DX009 (ip), vehicle: saline with Tween-80): 109 % of control

CC1(C)OC2C(COC(=O)c3ccc([N+](=O)[O-])cc3)OC(NC(=O)N(CCCl)N=O)C2O1 (stereo not drawn)
T/C (dose: 5.0 mg/kg/injection, schedule: Q01DX009 (ip), vehicle: saline): 100 % of control | T/C (dose: 10.0 mg/kg/injection, schedule: Q01DX009 (ip), vehicle: saline): 207 % of control | T/C (dose: 12.5 mg/kg/injection, schedule: Q01DX009 (ip), vehicle: saline with Tween-80): 195 % of control | T/C (dose: 25.0 mg/kg/injection, schedule: Q01DX009 (ip), vehicle: saline with Tween-80): 248 % of control

Reference: PubChem BioAssay AID226 (DTP/NCI, 2004)
